Data: article PMC7488503 (Acta Pharmaceutica Sinica. B, 2020)
pIC50: −log10 of the molar value.

Tests used:
VEGFR2 = VEGFR2 (Homo sapiens, UniProt P35968); experiment: Z′-LYTE kinase inhibition assay
FGFR1 = FGFR1 (Homo sapiens, UniProt P11362); experiment: Z′-LYTE kinase inhibition assay
PDGFRβ = PDGFRβ (Homo sapiens, UniProt P09619); experiment: Z′-LYTE kinase inhibition assay
HUVECs = experiment: VEGF-induced HUVECs proliferation; assay type: cell-based; conditions: Homo sapiens, HUVEC, 72 h, read-out: IC50 HUVECs
HBVPs = experiment: PDGF-BB-induced HBVPs proliferation; assay type: cell-based; conditions: Homo sapiens, 48 h, read-out: IC50 HBVPs
[1] = test system: A549 lung cancer xenograft; experiment: A549 lung cancer subcutaneous xenograft model; assay type: in vivo, Balb/c nude mice
[2] = test system: NCI-H520 lung cancer xenograft; experiment: NCI-H520 lung cancer subcutaneous xenograft model; assay type: in vivo, Balb/c nude mice

PDGFRβ, sequence (P09619 33-1106): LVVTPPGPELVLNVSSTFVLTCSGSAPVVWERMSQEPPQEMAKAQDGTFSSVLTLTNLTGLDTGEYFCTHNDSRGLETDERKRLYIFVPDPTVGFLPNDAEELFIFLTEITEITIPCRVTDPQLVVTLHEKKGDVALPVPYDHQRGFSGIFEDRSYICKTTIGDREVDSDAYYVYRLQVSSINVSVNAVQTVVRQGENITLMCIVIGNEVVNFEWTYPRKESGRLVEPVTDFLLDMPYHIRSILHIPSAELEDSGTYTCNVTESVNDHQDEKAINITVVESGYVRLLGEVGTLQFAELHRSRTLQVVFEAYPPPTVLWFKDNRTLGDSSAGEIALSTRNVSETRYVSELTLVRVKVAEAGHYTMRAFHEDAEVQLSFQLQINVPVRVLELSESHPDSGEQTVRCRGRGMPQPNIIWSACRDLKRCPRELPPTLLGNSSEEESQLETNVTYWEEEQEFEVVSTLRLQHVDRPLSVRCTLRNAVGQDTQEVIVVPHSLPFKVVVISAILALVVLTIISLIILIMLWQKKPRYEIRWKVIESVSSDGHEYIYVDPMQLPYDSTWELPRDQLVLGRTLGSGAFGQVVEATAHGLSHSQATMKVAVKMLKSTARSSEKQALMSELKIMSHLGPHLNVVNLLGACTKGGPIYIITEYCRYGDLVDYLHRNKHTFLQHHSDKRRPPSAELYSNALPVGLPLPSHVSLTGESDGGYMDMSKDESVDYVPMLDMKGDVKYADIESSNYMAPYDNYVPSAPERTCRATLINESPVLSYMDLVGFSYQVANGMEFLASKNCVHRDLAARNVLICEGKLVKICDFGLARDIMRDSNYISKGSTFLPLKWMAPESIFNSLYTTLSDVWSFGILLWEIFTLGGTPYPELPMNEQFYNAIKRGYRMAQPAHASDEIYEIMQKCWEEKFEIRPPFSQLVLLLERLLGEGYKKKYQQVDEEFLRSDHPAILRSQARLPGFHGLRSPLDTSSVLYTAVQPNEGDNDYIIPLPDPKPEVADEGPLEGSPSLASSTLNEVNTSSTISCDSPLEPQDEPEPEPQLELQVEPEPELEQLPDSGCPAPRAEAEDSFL
VEGFR2, sequence (P35968 20-1356): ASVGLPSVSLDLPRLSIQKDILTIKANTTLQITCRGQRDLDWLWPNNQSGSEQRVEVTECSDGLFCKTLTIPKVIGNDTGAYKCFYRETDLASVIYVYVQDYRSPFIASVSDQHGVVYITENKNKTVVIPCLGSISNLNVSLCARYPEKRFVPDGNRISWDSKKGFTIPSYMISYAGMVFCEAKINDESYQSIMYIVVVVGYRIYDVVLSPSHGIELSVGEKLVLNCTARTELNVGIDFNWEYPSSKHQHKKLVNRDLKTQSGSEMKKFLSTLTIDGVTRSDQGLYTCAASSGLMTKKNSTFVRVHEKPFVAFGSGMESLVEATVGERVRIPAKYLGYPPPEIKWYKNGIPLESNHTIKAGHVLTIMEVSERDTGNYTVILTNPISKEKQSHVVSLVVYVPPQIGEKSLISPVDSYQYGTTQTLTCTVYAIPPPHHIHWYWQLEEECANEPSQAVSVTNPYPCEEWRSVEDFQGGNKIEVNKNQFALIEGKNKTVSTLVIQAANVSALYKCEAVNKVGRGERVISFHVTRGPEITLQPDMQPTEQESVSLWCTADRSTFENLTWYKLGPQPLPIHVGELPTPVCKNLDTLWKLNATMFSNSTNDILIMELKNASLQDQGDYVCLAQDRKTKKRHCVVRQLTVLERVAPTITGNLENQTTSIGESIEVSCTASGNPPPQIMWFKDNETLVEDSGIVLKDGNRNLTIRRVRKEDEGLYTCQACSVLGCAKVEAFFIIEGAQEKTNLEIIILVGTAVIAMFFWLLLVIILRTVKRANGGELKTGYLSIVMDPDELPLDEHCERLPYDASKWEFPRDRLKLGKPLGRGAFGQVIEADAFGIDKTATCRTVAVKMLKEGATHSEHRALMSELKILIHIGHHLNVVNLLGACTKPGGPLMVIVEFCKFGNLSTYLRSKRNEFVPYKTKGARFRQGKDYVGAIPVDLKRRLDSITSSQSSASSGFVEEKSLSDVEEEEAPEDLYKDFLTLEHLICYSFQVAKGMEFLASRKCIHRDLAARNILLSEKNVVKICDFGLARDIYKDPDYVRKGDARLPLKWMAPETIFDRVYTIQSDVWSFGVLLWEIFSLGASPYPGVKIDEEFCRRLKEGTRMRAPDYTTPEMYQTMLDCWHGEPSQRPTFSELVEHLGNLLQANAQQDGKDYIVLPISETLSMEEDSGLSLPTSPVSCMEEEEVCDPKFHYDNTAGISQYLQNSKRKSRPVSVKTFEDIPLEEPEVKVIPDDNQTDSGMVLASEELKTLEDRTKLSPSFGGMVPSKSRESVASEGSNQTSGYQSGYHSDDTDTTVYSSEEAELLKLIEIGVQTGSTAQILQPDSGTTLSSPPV
FGFR1, sequence (P11362 22-822): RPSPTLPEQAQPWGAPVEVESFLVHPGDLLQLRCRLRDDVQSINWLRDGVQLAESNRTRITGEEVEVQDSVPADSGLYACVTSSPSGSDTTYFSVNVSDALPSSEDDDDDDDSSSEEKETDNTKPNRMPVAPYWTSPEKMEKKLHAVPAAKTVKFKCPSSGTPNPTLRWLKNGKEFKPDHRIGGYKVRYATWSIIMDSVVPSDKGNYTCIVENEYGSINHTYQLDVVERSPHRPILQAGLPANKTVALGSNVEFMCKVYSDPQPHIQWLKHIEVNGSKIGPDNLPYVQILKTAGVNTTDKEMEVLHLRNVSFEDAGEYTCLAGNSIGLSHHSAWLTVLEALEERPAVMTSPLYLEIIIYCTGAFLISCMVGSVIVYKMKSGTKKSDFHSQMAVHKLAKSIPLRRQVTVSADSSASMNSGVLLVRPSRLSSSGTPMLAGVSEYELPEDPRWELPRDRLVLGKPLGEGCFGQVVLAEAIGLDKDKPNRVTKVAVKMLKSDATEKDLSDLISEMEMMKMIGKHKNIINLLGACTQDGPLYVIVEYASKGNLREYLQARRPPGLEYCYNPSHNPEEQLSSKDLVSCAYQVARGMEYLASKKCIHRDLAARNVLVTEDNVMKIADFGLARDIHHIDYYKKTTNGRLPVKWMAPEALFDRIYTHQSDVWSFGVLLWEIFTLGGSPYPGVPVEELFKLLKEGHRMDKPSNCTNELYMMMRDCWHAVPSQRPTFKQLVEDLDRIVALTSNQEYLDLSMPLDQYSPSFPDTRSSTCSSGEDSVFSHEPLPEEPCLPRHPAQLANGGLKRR

pIC50 (VEGFR2)	pIC50 (FGFR1)	pIC50 (PDGFRβ)	Structure (SMILES)	pIC50 (HUVECs)	pIC50 (HBVPs)	T/C ([1]; 100 mg/kg p.o. QD, Day 21)	TGI ([1]; 100 mg/kg p.o. QD, Day 21)	Tumor volume at Day 21 ([1]; 100 mg/kg p.o. QD, mean ± SEM)	area of CD31 (tumor micro-vessel density, IHC) ([1]; 100 mg/kg, mean ± SEM, n = 3, control 3.38 ± 0.49)	T/C ([2]; 100 mg/kg p.o. QD, Day 21)	TGI ([2]; 100 mg/kg p.o. QD, Day 21)	Tumor volume at Day 21 ([2]; 100 mg/kg p.o. QD, mean ± SEM)	area of CD31 (tumor micro-vessel density, IHC) ([2]; 100 mg/kg, mean ± SEM, n = 3, control 4.96 ± 0.62)
7.49	6.36	7.11	COc1cc2nccc(Oc3ccc(NC(N)=S)c(Cl)c3)c2cc1C(N)=O [C1]										
			COC(=O)c1ccc2c(c1)NC(=O)/C2=C(\Nc1ccc(N(C)C(=O)CN2CCN(C)CC2)cc1)c1ccccc1 [Nintedanib, reference compound]	7.39	5.78	26%	80%	391 ± 43 mm^3	1.05 ± 0.33	45%	62%	585 ± 101 mm^3	1.99 ± 0.04
8.03	6.73	6.84	COc1cc2nccc(Oc3ccc(NC(=S)NC4CC4)c(Cl)c3)c2cc1C(N)=O [WXFL-255, 4-(3-chloro-4-(3-cyclopropylthioureido)phenoxy)-7-methoxyquinoline-6-carboxamide]	7.04									
